# Data reported in US12686694B2, “Method of extracting carbonic acid, aliphatic acids, esters and alcohols from an aqueous medium” (EVONIK OPERATIONS GMBH, priority 2019, dated 2026).
# Assay: Extraction of hexanol from aqueous solution with trialkylphosphine in alkane or pure trialkylphosphine
# Format: physicochemical
# [1] = hexanol extraction without buffer in aqueous phase, mass ratio 9 to 1
# [2] = with ammonium acetate buffer in aqueous phase, mass ratio 9 to 1
smiles,measurement,setting,value
"CCCCCCCCCCCCCC [none (100% tetradecane), tetradecane]",Equilibrium pH,hexanol extraction without buffer in aqueous phase,7.01
same,Aq. Hexanoic acid conc. (after),[1],2.40 g/kg
same,Aq. Hexanoic acid conc. (before),[1],3.70 g/kg
same,Aq. Hexanol conc. (after),[2],2.75 g/kg
same,Org. Hexanol conc.,[2],12.44 g/kg
same,Org. Hexanol conc.,"without buffer in aqueous phase, mass ratio 9 to 1",11.65 g/kg
